The subject of one experiment is humans. To be noted: cited from earlier work.
For another experiment, the system named is male Crl:CD(SD) rats. As to the kind of experiment: Appearance of radiolabeled cholesterol (chylomicrons) in circulation after labeled oral fat challenge with triton block. The format is in vivo, rat. To be noted: vs vehicle; for appearance of 3H cholesterol (CPM) in the serum: 3H cholesterol tracer. From the text:
A rat model (male Crl:CD(SD) rats) was used for the evaluation of a diverse set of GPR119 agonists. The objective of the studies was to determine if administration of a single dose of an agonist affects the appearance of chylomicrons containing either ^3H- or ^14C-cholesterol in circulation of fasted Crl:CD(SD) rats.
In order to track chylomicron appearance in circulation, radiolabeled cholesterol (with or without radiolabeled retinol) was co-administered with olive oil by oral gavage. Both tracers label the chylomicron core as the cholesterol administered is esterified in the enterocyte, packaged into the chylomicron, and released into the lymphatic system for transport to the systemic circulation. In order to assess appearance and accumulation of the newly formed chylomicrons in circulation, triton was administered by intravenous injection to block the clearance of these particles from circulation.
The rats had been previously instrumented with an implanted jugular catheter to facilitate obtaining multiple blood samples without stress to the animal. Rats were fasted overnight prior to labeled oral fat challenge. All compounds were dosed one hour prior to the challenge test. Treatment groups were randomized by body weight.
All compounds were administered at 5 mL/kg by the oral route as suspensions in hydroxypropylmethylcellulose (0.5%) which contained 0.1% Tween 80. Triton (250 mg/kg) was administered by intravenous injection immediately prior to an oral gavage of the tracer mixed with olive oil. Total volume of olive oil administered per rat was 2 mL, which contained (per 2 mL olive oil) either:
5-10 uCi ^14C-cholesterol (alone or in combination with 80 uCi ^3H-retinol)
5-20 uCi ^3H-cholesterol.
Blood samples were taken at the following time points: 0.25, 0.5, 0.75, 1, 2, 3, 4, 5 and 6 hours post olive oil gavage. Samples were spun at 8,000×g for 8 minutes at room temperature and 100 uL aliquots of serum counted for ^3H or ^14C.

Where [1] appears, read: previously discovered, patients.
Setting [2] is: single oral dose 30 mg/kg one hour before olive oil containing 14C cholesterol.

As to `CC(C)c1noc(N2CCC(COc3ccc(-c4ccc(S(C)(=O)=O)cc4)nc3)CC2)n1` [Compound A, 5-[({1-[3-(1-methylethyl)-1,2,4-oxadiazol-5-yl]-4-piperidinyl}methyl)oxy]-2-[4-(methylsulfonyl)phenyl]pyridine], in the experiment with humans (humans), the “fasting ApoB/B100” value is listed as “reducing”, the “fasting ApoB/B100:ApoA1 ratio” value is listed as “reducing”, the “fasting ApoE” value is reported as “reducing” and the “fasting HDL cholesterol” value was “increasing”. Also, in the experiment on humans (humans), the “fasting LDL cholesterol” value is listed as “reduced”, the “fasting LDL cholesterol:HDL cholesterol ratio” value was “reducing”, the “fasting non-HDL cholesterol” value is given as “reducing” and the “fasting plasma alanine aminotransferase” value was “reducing”. In the experiment with humans (humans), the “fasting plasma uric acid” value is “reducing”, the fasting total cholesterol result is “reducing”, the “fasting total cholesterol:HDL cholesterol ratio” value is “reducing” and the fasting triglycerides entry is “reducing”. Also, in the experiment on humans (humans), the prandial triglycerides result is given as “reducing”. Moreover, the “rise in serum triglycerides that occurs following meals” value in the experiment on humans (patients treated with Compound A) was “significantly blunted”. Also, in the experiment on humans (setting [1]), the HDL cholesterol result is listed as “raises”, the LDL cholesterol result was “lowers” and the total cholesterol result is given as “lowers”. The “appearance of 3H cholesterol (CPM) in the serum” value (“appearance of 3H cholesterol” for short) with male Crl:CD(SD) rats (single oral dose 3 mg/kg) is “decreased”. Moreover, the “appearance of 14C labeled chylomicrons in circulation” value (shortened to “appearance … in circulation”) with male Crl:CD(SD) rats (single oral dose 3 mg/kg, olive oil containing 14C cholesterol) is reported as “significantly reduced”. Further, the “appearance of 3H cholesterol” value with male Crl:CD(SD) rats (single oral dose 10 mg/kg) was “decreased”. Moreover, the “appearance … in circulation” value in the experiment with male Crl:CD(SD) rats (single oral dose 10 mg/kg, olive oil containing 14C cholesterol) is “significantly reduced”. The “appearance … in circulation” value in the experiment with male Crl:CD(SD) rats (setting [2]) is reported as “significantly reduced”.

In the case of `CC(C)c1noc(N2CCC([C@H](C)Oc3cnc(-c4ccc(S(C)(=O)=O)cc4)cn3)CC2)n1` [Compound B, 2-[((1S)-1-{1-[3-(1-methylethyl)-1,2,4-oxadiazol-5-yl]-4-piperidinyl}ethyl)oxy]-5-[4-(methylsulfonyl)phenyl]pyrazine], the “appearance … in circulation” value in the experiment on male Crl:CD(SD) rats (setting [2]) is on record as “significantly reduced”. Also, the “appearance of 3H cholesterol” value with male Crl:CD(SD) rats (single oral dose 30 mg/kg) is listed as “decreased”.

Turning to `Cc1ncccc1Oc1ncnc(OC2CCN(C(=O)OC(C)C)CC2)c1C.Cl` [Compound G, 1-methylethyl 4-({5-methyl-6-[(2-methyl-3-pyridinyl)oxy]-4-pyrimidinyl}oxy)-1-piperidinecarboxylate hydrochloride], the “appearance of 3H cholesterol” value in the experiment with male Crl:CD(SD) rats (single oral dose 30 mg/kg) is “significant reduced”.

In the case of `Cc1cc(S(C)(=O)=O)ccc1N1CCc2c(OC3CCN(C(=O)OC(C)C)CC3)ncnc21` [Compound H, 1-methylethyl 4-({7-[2-methyl-4-(methylsulfonyl)phenyl]-6,7-dihydro-5H-pyrrolo[2,3-d]pyrimidin-4-yl}oxy)-1-piperidinecarboxylate], in the experiment on male Crl:CD(SD) rats (single oral dose 30 mg/kg), the “appearance of 3H cholesterol” value is “significant reduced”.

Turning to `CC(C)n1nnc(N2CCC([C@H](C)Oc3cnc(-c4ccc(S(C)(=O)=O)cc4)cn3)CC2)n1` [Compound I, 2-[((1S)-1-{1-[2-(1-methylethyl)-2H-tetrazol-5-yl]-4-piperidinyl}ethyl)oxy]-5-[4-(methylsulfonyl)phenyl]pyrazine], the “appearance of 3H cholesterol” value with male Crl:CD(SD) rats (single oral dose 30 mg/kg) was “significant reduced”.

For the compound `C[C@@H](OC1CCN(C(=O)OC(C)(C)C)CC1)c1nc(-c2ccc(S(C)(=O)=O)c(F)c2)no1` [Compound J, 1,1-dimethylethyl 4-[((1R)-1-{3-[3-fluoro-4-(methylsulfonyl)phenyl]-1,2,4-oxadiazol-5-yl}ethyl)oxy]-1-piperidinecarboxylate], the “appearance of 3H cholesterol” value with male Crl:CD(SD) rats (single oral dose 30 mg/kg) is “significant reduced”.

The values above are taken from patent US20140249156A1, “Treatment Of Blood Lipid Abnormalities And Other Conditions” (GlaxoSmithKline LLC, priority 2011, published 2014).
